In patent publication EP0119428A2, “Biscarboxamides for treating diseases, and process for their preparation” (BAYER AG, priority 1983, dated 1984):

The compounds below were run on spontan hypertensiven Ratte (assay: Blood pressure lowering in the spontaneously hypertensive rat after oral dosing). Details: lowest dose that still lowers blood pressure by at least 15 mm Hg, read-out: niederste noch wirksame, orale Dosis.
Assay type: in vivo
From the text: Die in der folgenden Tabelle angeführten Verbindungen senken an der spontan hypertensiven Ratte den Blutdruck um mindestens 15 mm Hg. Angegeben ist die niederste noch wirksame, orale Dosis.
`CC(NC(=O)c1ccccc1C(=O)Nc1cccnc1)C(C)(C)C` (stereo not drawn) [Beispiel 26, N-(3-Pyridyl)-N'-(1,2,2-trimethylpropyl)-phtalamid] gave a minimal effective dose of 3 mg/kg.
With `CCOc1ccccc1NC(=O)c1ccccc1C(=O)NC(C)C(C)(C)C` (stereo not drawn) [Beispiel 13, N-(2-Ethoxyphenyl)-N'-(1,2,2-trimethylpropyl)-phtalamid] the minimal effective dose was 10 mg/kg.
Work on `CC(NC(=O)c1ccccc1C(=O)Nc1ccccc1)C(C)(C)C` (stereo not drawn) [Beispiel 12, N-Phenyl-N'-(1,2,2-trimethylpropyl)-phtalamid] yielded a minimal effective dose of 10 mg/kg.
